Measured values: patent US20230009608A1, “GRK2 INHIBITORS AND USES THEREOF” (Cygnal Therapeutics, Inc., priority 2020, published 2023)

Columns and labels:
GRK2 [1] = target: T1, GRK2 (Homo sapiens, UniProt P25098); test: GRK2 Inhibition Assay (TR-FRET, Example 7); assay type: biochemical
T1 construct: purchased SignalChem A14-10G
T1 sequence (P25098 1-689): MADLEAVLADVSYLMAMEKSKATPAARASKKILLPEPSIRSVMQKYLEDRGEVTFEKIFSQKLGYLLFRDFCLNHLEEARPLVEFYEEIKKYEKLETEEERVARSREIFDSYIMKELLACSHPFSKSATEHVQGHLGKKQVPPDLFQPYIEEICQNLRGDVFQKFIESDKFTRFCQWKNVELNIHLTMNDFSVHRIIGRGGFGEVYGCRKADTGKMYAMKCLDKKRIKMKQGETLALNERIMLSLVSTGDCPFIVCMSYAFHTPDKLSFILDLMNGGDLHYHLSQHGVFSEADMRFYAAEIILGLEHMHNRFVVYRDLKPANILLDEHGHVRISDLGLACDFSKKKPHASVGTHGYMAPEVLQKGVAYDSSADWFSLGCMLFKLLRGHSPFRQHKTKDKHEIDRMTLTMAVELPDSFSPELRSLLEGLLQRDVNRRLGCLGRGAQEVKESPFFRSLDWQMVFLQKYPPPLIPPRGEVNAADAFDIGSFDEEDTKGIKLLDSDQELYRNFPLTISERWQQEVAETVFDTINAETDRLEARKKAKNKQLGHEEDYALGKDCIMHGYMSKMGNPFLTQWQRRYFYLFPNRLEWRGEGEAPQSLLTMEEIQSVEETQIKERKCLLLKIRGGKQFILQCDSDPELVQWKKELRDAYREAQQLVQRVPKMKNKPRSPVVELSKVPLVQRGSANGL
Description: Enzyme GRK2 (1 nM final concentration) was diluted in 25 mMv HEPES, 10 mM MgCl2, 2 mM DTT, 0.01% Tween-20, and 1 mM EGTA. Then the GRK2 mixture was added into ProxiPlate-384 white plate and pre-incubated for 30 min with test compounds at room temperature. ATP (7 μM final concentration) and Ulight TopoIIα (50 nM final concentration) were added into the assay plate to initiate the reaction and the mixture was incubated at room temperature for 90 min. Then, Eu anti-TopoIIα (0.12 nM final concentration), BSA (0.01% final concentration), and EDTA (11 mMv final concentration) in LANCE assay buffer were added into each well. After 60 min incubation time at room temperature, TR-FRET signal was measured by EnVision plate reader.

[2] = tested on: PAXF1657 control empty vector cell line; test: 7-day proliferation assay, PAXF1657 control empty vector cell line (Example 9); assay type: cell-based; conditions: 168 h; Cell Line: PAXF1657 empty vector (EV) cell line; 7-day; read-out: C: 7-day proliferation assay: IC50 GeoMean
Summary of the method: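 Isogenic PAXF1657 pairs differing in GRK2 level (stable cDNA overexpression or CRISPR knockout, each with matched control) are seeded and allowed to attach overnight. Inhibitors span 30 μM-0.0002 μM in 0.3% DMSO for 3 plus 4 days at 37° C, 5% CO2, with a medium change between.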

GRK2 [3] = target: T1, GRK2; test: ADPGlo GRK2 Inhibition Assay (Example 8); assay type: biochemical; conditions: Enzyme Assay A, ADPGlo (Example 8); read-out: A: Enzymatic GRK2: IC50 (nM) (Example 8)
Summary of the method: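 GRK2 (15 nM 2× enzyme solution) was preincubated 15 min with compound, then reacted 180 min at room temperature with 2× mix of 20 μM ATP plus GRKtide in HEPES pH 7.5, MgCl2, Tween-20, DTT. ADP was detected by ADP-Glo luminescence. Percent inhibition was normalised to enzyme and no-enzyme controls, with dose-response curves from threefold dilutions starting at 100 μM.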

[4] = Enzyme Assay B, TR-FRET (Example 7), read-out: B: Enzymatic GRK2: IC50 (nM) (Example 7)

IC50 (GRK2 [1]; [4]) | IC50 (GRK2 [3]) | Structure (SMILES) | IC50 [2] | IC50 (GRK2 [1])
170 nM | – | CN(C)CCCn1c(CNc2cccc(C(=O)NCc3c(F)cccc3F)c2)nnc1-c1ccncn1 | – | –
660 nM | – | CNCCCn1c(CNc2cccc(C(=O)NCc3c(F)cccc3F)c2)nnc1-c1ccncn1 | – | –
47 nM | – | O=C(NCc1c(F)cccc1F)c1cccc(NCc2nnc(-c3ccncn3)n2CCCO)c1 | – | –
– | 19 nM | Cc1noc(C)c1CNC(=O)c1cccc(NCc2nnc(-c3ccncn3)n2C)c1 | 173 nM | –
– | 26 nM | Cc1nc(C)c(CNC(=O)c2cccc(NCc3nnc(-c4ccncn4)n3C)c2)s1 | > 10000 nM | –
– | 27 nM | CC(NC(=O)c1cccc(NCc2nnc(-c3ccncn3)n2C)c1)c1ccn(C)n1 (stereo not shown) | 2150 nM | –
– | 54 nM | COc1cc(F)cc(CNC(=O)c2cccc(NCc3nnc(-c4ccncn4)n3C)c2)c1 | > 10000 nM | –
– | 16 nM | Cn1c(CNc2cccc(C(=O)NCc3cccc(F)c3F)c2)nnc1-c1ccncn1 | > 10000 nM | –
– | 370 nM | CCn1ncnc1CNC(=O)c1cccc(NCc2nnc(-c3ccncn3)n2C)c1 | > 10000 nM | –
– | 16 nM | Cc1ncccc1CNC(=O)c1cccc(NCc2nnc(-c3ccncn3)n2C)c1 | 1490 nM | –
– | 8.3 nM | Cc1ocnc1CNC(=O)c1cccc(NCc2nnc(-c3ccncc3)[nH]2)c1 | > 7500 nM | –
– | 25 nM | O=C(NCc1cnccn1)c1cccc(NCc2nnc(-c3ccncc3)[nH]2)c1 | > 10000 nM | –
330 nM | – | O=C(NC1(c2ccccc2)CCOCC1)c1cccc(NCc2nnc(-c3ccncc3)[nH]2)c1 | – | –
130 nM | – | O=C(NC1(c2ccccc2)CCOCC1)c1cccc(NCc2nnc(-c3ccncc3)n2CCO)c1 | – | –
170 nM | – | Cn1c(CNc2cccc(C(=O)N[C@H]3CCOc4ccccc43)c2)nnc1-c1ccncc1Cl | – | –
> 10000 nM | – | CN(Cc1cccnc1C(F)(F)F)C(=O)c1cccc(NCc2nnc(-c3ccncn3)n2C)c1 | – | –
– | 14 nM | Cn1c(CNc2cccc(C(=O)NC(CO)c3ccc(F)cc3)c2)nnc1-c1ccncn1 (stereo not shown) | > 30000 nM | –

IC50 (GRK2 [1]; [4]) | IC50 (GRK2 [3]) | Structure (SMILES) | IC50 [2] | IC50 (GRK2 [1])
– | 15 nM | Cc1cncc(CNC(=O)c2cccc(NCc3nnc(-c4ccncn4)n3C)c2)c1 | > 30000 nM | –
– | 14 nM | Cc1ccn2c(CNC(=O)c3cccc(NCc4nnc(-c5ccncn5)n4C)c3)nnc2c1 | > 30000 nM | –
– | 19 nM | Cc1nn(C)cc1CNC(=O)c1cccc(NCc2nnc(-c3ccncn3)n2C)c1 | 6220 nM | –
– | 17 nM | Cc1cc(CNC(=O)c2cccc(NCc3nnc(-c4ccncn4)n3C)c2)n(C)n1 | 4150 nM | –
– | 45 nM | Cn1c(CNc2cccc(C(=O)NCc3cc(Cl)ccn3)c2)nnc1-c1ccncn1 | > 30000 nM | –
– | 67 nM | Cc1nc(C(C)NC(=O)c2cccc(NCc3nnc(-c4ccncn4)n3C)c2)no1 (stereo not shown) | > 30000 nM | –
– | 41 nM | Cc1cc(CNC(=O)c2cccc(NCc3nnc(-c4ccncn4)n3C)c2)nn1C | > 30000 nM | –
– | 27 nM | Cn1c(CNc2cccc(C(=O)NCc3cocn3)c2)nnc1-c1ccncn1 | > 30000 nM | –
– | 23 nM | Cn1c(CNc2cccc(C(=O)NCc3ccon3)c2)nnc1-c1ccncn1 | > 30000 nM | –
– | 36 nM | Cn1cc(CNC(=O)c2cccc(NCc3nnc(-c4ccncn4)n3C)c2)cn1 | 9770 nM | –
– | 20.4 nM | COCCOc1ccc(CNC(=O)c2cccc(NCc3nnc(-c4ccncn4)n3C)c2)cc1 | > 14200 nM | –
– | 9.99 nM | Cc1ccc2c(c1)OCC[C@H]2NC(=O)c1cccc(NCc2nnc(-c3ccncn3)n2C)c1 | 648 nM | –
– | > 1000 nM | Cc1ccc2c(c1)OCC[C@@H]2NC(=O)c1cccc(NCc2nnc(-c3ccncn3)n2C)c1 | 2580 nM | –
– | 14 nM | Cc1cccnc1CNC(=O)c1cccc(NCc2nnc(-c3ccncn3)n2C)c1 [drawing 264] | 1610 nM | –
– | 22 nM | CC1Cc2cc(CNC(=O)c3cccc(NCc4nnc(-c5ccncn5)n4C)c3)ccc2O1 (stereo not shown) [drawing 401] | 3370 nM | –
– | 10 nM | Cn1ccnc1C(NC(=O)c1cccc(NCc2nnc(-c3ccncc3)[nH]2)c1)C1CC1 (stereo not shown) [drawing 485] | 5510 nM | –

More lines, now with the values behind:

Structure (SMILES) | IC50 (GRK2 [1]; [4]) | IC50 (GRK2 [3]) | IC50 [2] | IC50 (GRK2 [1])
CNCCn1c(CNc2cccc(C(=O)NCc3c(F)cccc3F)c2)nnc1-c1ccncn1 | 1400 nM | – | – | –
CNc1cc(-c2nnc(CNc3cccc(C(=O)NCc4c(F)cccc4F)c3)n2C)ncn1 | 4400 nM | – | – | –
Cn1c(CNc2cccc(C(=O)NCc3cccc4ncccc34)c2)nnc1-c1ccncn1 | – | 11 nM | > 10000 nM | –
Cc1nn(C)c(C)c1CNC(=O)c1cccc(NCc2nnc(-c3ccncn3)n2C)c1 | – | 26 nM | > 10000 nM | –
Cc1ccccc1C(CO)NC(=O)c1cccc(NCc2nnc(-c3ccncn3)n2C)c1 (stereo not shown) | – | 33 nM | 8660 nM | –
Cn1c(CNc2cccc(C(=O)NCc3ccc4c(c3)CCO4)c2)nnc1-c1ccncn1 | – | 16 nM | 1670 nM | –
COc1cccc(CNC(=O)c2cccc(NCc3nnc(-c4ccncn4)n3C)c2)c1F | – | 10 nM | > 10000 nM | –
COc1ccccc1CNC(=O)c1cccc(NCc2nnc(-c3ccncn3)n2C)c1 | – | 20 nM | 1900 nM | –
CC(NC(=O)c1cccc(NCc2nnc(-c3ccncn3)n2C)c1)c1nccn1C (stereo not shown) | – | 24 nM | 591 nM | –
O=C(NCCc1cccc(OS(=O)(=O)F)c1)c1cccc(NCc2nnc(-c3ccncc3)[nH]2)c1 | – | – | – | 210 nM
Cn1c(CNc2cccc(C(=O)N[C@@H](CO)c3cc(F)ccc3F)c2)nnc1-c1ccncn1 | – | 10 nM | > 30000 nM | –
CC(NC(=O)c1cccc(NCc2nnc(-c3ccncn3)n2C)c1)c1ccncc1 (stereo not shown) | – | 11 nM | 2150 nM | –
CC(NC(=O)c1cccc(NCc2nnc(-c3ccncn3)n2C)c1)c1ccccn1 (stereo not shown) | – | 29 nM | 522 nM | –
Cn1ccc(CNC(=O)c2cccc(NCc3nnc(-c4ccncn4)n3C)c2)n1 | – | 60 nM | 1290 nM | –
Cn1c(CNc2cccc(C(=O)NCc3cnccn3)c2)nnc1-c1ccncn1 | – | 37 nM | > 30000 nM | –
CC(NC(=O)c1cccc(NCc2nnc(-c3ccncn3)n2C)c1)c1cn[nH]c1 (stereo not shown) | – | 13 nM | 16800 nM | –
Cn1c(CNc2cccc(C(=O)NCc3ccnnc3)c2)nnc1-c1ccncn1 | – | 43 nM | > 30000 nM | –
Cn1c(CNc2cccc(C(=O)NCc3cscn3)c2)nnc1-c1ccncn1 | – | 13 nM | > 30000 nM | –
Cn1c(CNc2cccc(C(=O)NCc3nc(C4CC4)no3)c2)nnc1-c1ccncn1 | – | 27 nM | 5750 nM | –
Cn1cc(-c2cc(CNC(=O)c3cccc(NCc4nnc(-c5ccncn5)n4C)c3)ccn2)cn1 | – | 17 nM | > 30000 nM | –
C#Cc1cc(CNC(=O)c2cccc(NCc3nnc(-c4ccncc4)[nH]3)c2)cc(OS(=O)(=O)F)c1 | – | 34.9 nM | 10800 nM | –
C#Cc1ccc(OS(=O)(=O)F)cc1CNC(=O)c1cccc(NCc2nnc(-c3ccncc3)[nH]2)c1 | – | 28.4 nM | 7440 nM | –
Cn1c(CNc2cccc(C(=O)NCc3ccncc3Cl)c2)nnc1-c1ccncn1 [drawing 276] | – | 9.1 nM | 4060 nM | –
CN1CCC(NC(=O)c2cccc(NCc3nnc(-c4ccncn4)n3C)c2)c2ccccc21 (stereo not shown) [drawing 321] | – | 37 nM | 9340 nM | –
Cn1c(CNc2cccc(C(=O)NCc3ccnc(OCC(F)(F)F)c3)c2)nnc1-c1ccncn1 [drawing 339] | – | 17 nM | 3760 nM | –
C[C@H](NC(=O)c1cccc(NCc2nnc(-c3ccncn3)n2C)c1)c1cccnc1 [drawing 345] | – | 420 nM | > 8570 nM | –
Cn1c(CNc2cccc(C(=O)NCc3cccc4cccnc34)c2)nnc1-c1ccncn1 [drawing 359] | – | 61 nM | 3640 nM | –
COc1cccc(C(C)NC(=O)c2cccc(NCc3nnc(-c4ccncn4)n3C)c2)c1 (stereo not shown) [drawing 381] | – | 12 nM | 377 nM | –
